What was measured:
rats [1] = assay: Forced swimming test; assay type: in vivo; conditions: compared to vehicle
Protocol: Forced swimming test (FST, i.e. Porsolt's test) is generally used in the pharmacological screening of new-antidepressants. In this test, antidepressants increase the animals' activity compared to non-treated controls. […] Therefore, it was tested, whether a selective alfa2C-antagonist would have antidepressant-like activity (e.g. activity-increasing property) in the FST. […] Also the positive control substances desipramine and fluoxetine (clinically effective antidepressant agents) were active.

mice = assay: Antagonism of alpha2-agonist (dexmedetomidine)-induced sedation; assay type: in vivo; conditions: dexmedetomidine 50 nmol/kg s.c., antagonist pre-treatment
Protocol: (veh=vehicle). (***p<0.001, compared to Dex+vehicle)
One of the prominent effects of non-selective alpha2-agonists in rodents is their ability to cause profound sedation. This effect, measured as locomotor inhibition by the alpha2-agonist dexmedetomidine was not modified in mice with genetically altered alpha2C-expression (Scheinin, M. et al., Life Sci 68(19-20) (2001) 2277-85). […] This assumption was tested in experiment, where dexmedetomidine was administered to mice pre-treated with the alpha2C-antagonists compound K or compound L, or the subtype non-selective antagonist atipamezole (Haapalinna, A. et al., Naunyn-Schmiedeberg's Arch. Pharmacol. 356 (1997) 570-582).

rats [2] = assay: Prepulse inhibition of the startle reflex; assay type: in vivo
Protocol: FIGS. 4a and 4b show the effect of compounds K and L on the startle reflex and its prepulse inhibition in rats. (Veh=vehicle). Asterisks as in FIG. 1; comparisons were performed between PCP (phencyclidine)+vehicle and PCP+compounds K and L.
FIGS. 5a and 5b show the effect of the non-selective antagonist atiparnezole (ati) on the startle reflex and its prepulse inhibition in rats in the prescence of phencyclidine (PCP); (veh=vehicle). Asterisks as in FIG. 1, compared to the vehicle+PCP -group.
Prepulse-inhibition (PPI) of a startle response refers to the reduction in the startle response caused by a low intensity non-startling stimulus (the prepulse) which is presented shortly before the startle stimulus. PPI can be used as an operational measure of sensorimotor gating and appears to be present in all mammals, including rats and humans (Swerdlow, N. R. et al., The archives of general psychiatry 51 (1994) 139-154). Normally finctioning PPI can be disrupted by psychostimulants, such as d-amphetamine or phencyclidine (PCP), and reversed by clinically effective antipsychotics.
This hypothesis was tested with compounds K and L alone and against PCP disruption of the PPI. […]

alpha2A-adrenoceptor [3] = target: T1, alpha2A-adrenoceptor (Homo sapiens, UniProt P08913); assay: Radioligand binding to alpha2-adrenoceptors (alpha2A); conditions: calculated Ki from radioligand binding assays; read-out: Binding affinity (Ki) alpha2A
T1 sequence (P08913 1-465): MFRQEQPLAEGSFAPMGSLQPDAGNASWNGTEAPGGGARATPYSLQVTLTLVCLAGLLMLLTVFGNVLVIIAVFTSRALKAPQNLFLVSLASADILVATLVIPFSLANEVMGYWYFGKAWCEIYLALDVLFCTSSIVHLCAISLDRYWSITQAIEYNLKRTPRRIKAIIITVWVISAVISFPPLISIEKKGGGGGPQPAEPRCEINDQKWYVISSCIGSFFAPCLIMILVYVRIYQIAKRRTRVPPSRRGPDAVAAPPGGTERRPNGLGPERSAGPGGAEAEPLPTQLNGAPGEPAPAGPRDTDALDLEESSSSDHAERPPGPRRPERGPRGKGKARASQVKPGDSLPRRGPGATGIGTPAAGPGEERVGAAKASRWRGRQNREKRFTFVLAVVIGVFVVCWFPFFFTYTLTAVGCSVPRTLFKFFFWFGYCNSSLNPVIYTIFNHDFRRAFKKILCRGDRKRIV

alpha2B-adrenoceptor [4] = target: T2, alpha2B-adrenoceptor (Homo sapiens, UniProt P18089); assay: Radioligand binding to alpha2-adrenoceptors (alpha2B); conditions: calculated Ki from radioligand binding assays; read-out: Binding affinity (Ki) alpha2B
T2 sequence (P18089 1-450): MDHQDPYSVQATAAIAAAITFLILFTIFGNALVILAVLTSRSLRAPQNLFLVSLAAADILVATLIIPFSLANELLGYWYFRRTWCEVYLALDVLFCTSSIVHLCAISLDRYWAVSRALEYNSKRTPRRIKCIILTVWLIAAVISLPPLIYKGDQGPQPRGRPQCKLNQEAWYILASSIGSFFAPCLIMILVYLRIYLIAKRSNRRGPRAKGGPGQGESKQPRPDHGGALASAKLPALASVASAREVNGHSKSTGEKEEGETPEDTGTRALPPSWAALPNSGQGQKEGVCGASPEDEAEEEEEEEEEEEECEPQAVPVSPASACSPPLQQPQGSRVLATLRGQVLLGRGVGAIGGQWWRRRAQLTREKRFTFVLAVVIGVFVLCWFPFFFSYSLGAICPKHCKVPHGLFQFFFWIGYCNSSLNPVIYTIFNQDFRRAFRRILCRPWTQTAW
From the text: Examples of the alpha2-adrenoceptor binding affinities of the compounds including in the present invention are shown in the Table 1. Many of these compouinds are high-affinity ligands for all the alpha2-receptors, but some of them display selectivity for the alpha2C-subtype.

alpha2C-adrenoceptor [5] = target: T3, alpha2C-adrenoceptor (Homo sapiens, UniProt P18825); assay: Radioligand binding to alpha2-adrenoceptors (alpha2C); conditions: calculated Ki from radioligand binding assays; read-out: Binding affinity (Ki) alpha2C
T3 sequence (P18825 1-462): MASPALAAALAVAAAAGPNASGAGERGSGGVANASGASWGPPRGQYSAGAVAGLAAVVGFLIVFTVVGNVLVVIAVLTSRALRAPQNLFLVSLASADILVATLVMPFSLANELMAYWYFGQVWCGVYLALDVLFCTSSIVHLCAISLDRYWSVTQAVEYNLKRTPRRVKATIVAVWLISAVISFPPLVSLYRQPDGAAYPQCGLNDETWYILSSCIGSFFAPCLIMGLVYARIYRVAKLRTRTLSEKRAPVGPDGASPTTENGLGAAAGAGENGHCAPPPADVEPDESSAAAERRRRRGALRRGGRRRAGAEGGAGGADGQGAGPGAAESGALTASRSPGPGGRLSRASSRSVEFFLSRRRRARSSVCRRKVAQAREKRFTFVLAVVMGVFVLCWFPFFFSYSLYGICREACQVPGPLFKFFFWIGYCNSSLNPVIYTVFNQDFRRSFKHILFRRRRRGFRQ

alpha2A-adrenoceptor [6] = target: T1, alpha2A-adrenoceptor; assay: Inhibition of epinephrine-stimulated 35S-GTPγS binding, CHO cell membranes (alpha2A); assay type: biochemical; design: expressed in transfected cells; host or cells: CHO cells (membranes); conditions: mean, read-out: Antagonist potency (KB) alpha2A
Protocol: (§1) The functional activities of two compounds (K and L) displaying alpha2C-selectivity in binding experiments were determined as the abilities of the compounds to inhibit the epinephrine-stimulated binding of ^35S-GTPγS to G proteins (Jasper, J. R. et al., Biochem. Pharmacol. 55(7) (1998) 103544) in membranes of CHO cells stably transfected with the human alpha2-adrenoceptor subtypes.

alpha2B-adrenoceptor [7] = target: T2, alpha2B-adrenoceptor; assay: Inhibition of epinephrine-stimulated 35S-GTPγS binding, CHO cell membranes (alpha2B); assay type: biochemical; design: expressed in transfected cells; host or cells: CHO cells (membranes); conditions: mean, read-out: Antagonist potency (KB) alpha2B
Protocol: as §1

alpha2C-adrenoceptor [8] = target: T3, alpha2C-adrenoceptor; assay: Inhibition of epinephrine-stimulated 35S-GTPγS binding, CHO cell membranes (alpha2C); assay type: biochemical; design: expressed in transfected cells; host or cells: CHO cells (membranes); conditions: mean, read-out: Antagonist potency (KB) alpha2C
Protocol: as §1

| Compound | Activity in the forced swimming test (rats [1]; 10 micromol/kg) | Antagonism of dexmedetomidine-induced sedation (locomotor inhibition) (mice) | Effect on prepulse inhibition (PPI) disrupted by PCP (rats [2]; antagonist 20 min, PCP 10 min before measurement) | Effect on startle reflex per se (startle without prepulses) (rats [2]; in the presence of PCP) | Ki (alpha2A-adrenoceptor [3]) | Ki (alpha2B-adrenoceptor [4]) | Ki (alpha2C-adrenoceptor [5]) | Activity in the forced swimming test (rats [1]; 3 micromol/kg) | Kb (alpha2A-adrenoceptor [6]) | Kb (alpha2B-adrenoceptor [7]) | Kb (alpha2C-adrenoceptor [8]) |
| --- | --- | --- | --- | --- | --- | --- | --- | --- | --- | --- | --- |
| CNCCCN1c2ccccc2CCc2ccccc21 [desipramine] | increased activity | – | – | – | – | – | – | – | – | – | – |
| CCC1(c2cnc[nH]2)Cc2ccccc2C1 [atipamezole] | did not possess antidepressant-like effect | effectively antagonised the effect of dexmedetomidine | did not enhance PPI | increased the startle reflex per se | – | – | – | – | – | – | – |
| CNCCC(Oc1ccc(C(F)(F)F)cc1)c1ccccc1 (stereo not shown) [fluoxetine] | increased activity | – | – | – | – | – | – | – | – | – | – |
| CC[C@]1(CO)CCCN2CCc3c([nH]c4ccccc34)[C@@H]21 (relative stereo) [Compound L] | – | did not have clear effects | – | – | 85 nM | 20 nM | 18 nM | increased activity | 320 nM | 75 nM | 4.2 nM |
| CCC1(O)CCCN2CCc3c([nH]c4ccccc34)C21 (stereo not drawn) [Compound K, 1α-Ethyl-1,2,3,4,6,7,12,12bβ-octahydroindolo[2,3-]quinolizin-1-ol] | – | did not have clear effects | – | – | 359 nM | 245 nM | 31 nM | increased activity | 295 nM | 351 nM | 23 nM |

From US7592350B2, “Polycyclic compounds as potent alpha2-adrenoceptor antagonists” (Orion Corporation, priority 2002, dated 2009)
